Reference: patent US12629348B2, “Method and composition for treating osteoarthritis” (Vireo Systems, Inc., priority 2013, dated 2026)

How the values were obtained:
serum amyloid A = experiment: Serum amyloid A (solid phase sandwich EIA) in OA canines; assay type: in vivo, canine; conditions: 36 mg/kg/day oral
Procedure: The double-blind study was performed on a total of 30 adult canines of various breeds in five different private practice clinics. Owner consent was obtained prior to participation in the study. Each clinic was responsible for enrolling 6 canines into the study. Inclusion criteria for the study consisted of clinical assessment and radiograph confirmation of OA in at least one joint and a score of 22 or greater on the Helsinki chronic pain index (“HCPI”). Use of NSAIDs or other dietary supplements for OA were allowed, provided the current treatment regimens had not been altered for a period of at least three months. […]
In addition to the standard blood chemistry profile, blood samples taken before and at the conclusion of the two-week trial period were analyzed for PGE2 and SAA. […] Both plasma and serum samples were centrifuged at 2000×g for 10 minutes and the plasma and serum supernatants removed and frozen at […] until analyzed for PGE2 and SAA using enzyme-linked immunosorbent assays (“HA”). […] Plasma samples were analyzed for PGE2 using the bicycle PGE2 competitive EIA kit purchased from Cayman Chemical (Ann Arbor, MI). The assay converts PGE2 metabolites into a stable derivative that is measured using EIA. Samples (100 μl) were analyzed in triplicate and PGE2 concentrations determined by use of standard curve. […]

cyclooxygenase-2 (COX-2) = target: T1, cyclooxygenase-2 (COX-2) (Homo sapiens, UniProt P35354); experiment: Inhibition of cyclooxygenase-2 activity
T1 sequence (P35354 18-604): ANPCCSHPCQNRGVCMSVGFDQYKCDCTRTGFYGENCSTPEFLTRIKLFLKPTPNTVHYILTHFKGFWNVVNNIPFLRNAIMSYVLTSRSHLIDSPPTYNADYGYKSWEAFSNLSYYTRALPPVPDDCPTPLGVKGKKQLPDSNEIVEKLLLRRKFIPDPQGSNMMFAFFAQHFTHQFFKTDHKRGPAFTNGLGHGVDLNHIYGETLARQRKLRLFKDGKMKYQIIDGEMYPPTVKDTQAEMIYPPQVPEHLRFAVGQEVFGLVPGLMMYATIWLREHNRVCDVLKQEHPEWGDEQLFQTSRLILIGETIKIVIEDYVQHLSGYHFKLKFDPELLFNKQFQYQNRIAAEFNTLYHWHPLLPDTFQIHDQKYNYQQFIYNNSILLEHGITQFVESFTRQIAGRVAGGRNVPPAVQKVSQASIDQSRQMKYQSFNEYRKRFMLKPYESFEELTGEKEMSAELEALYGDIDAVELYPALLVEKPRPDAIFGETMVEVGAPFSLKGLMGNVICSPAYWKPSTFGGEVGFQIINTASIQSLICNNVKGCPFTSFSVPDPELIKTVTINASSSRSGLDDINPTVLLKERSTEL

inhibition of COX-2 activity (cyclooxygenase-2 (COX-2); 0.1 μM): about 10%
inhibition of COX-2 activity (cyclooxygenase-2 (COX-2); 1 μM (first of three values printed for '1 μM and 100 μM')): about 15%
inhibition of COX-2 activity (cyclooxygenase-2 (COX-2); 100 μM (third of three values printed for '1 μM and 100 μM')): about 15%
concentration dependency of inhibition of COX-2 (cyclooxygenase-2 (COX-2); 0.1-100 μM, FIG. 2): did not show a concentration dependency
inhibition of COX-2 activity (cyclooxygenase-2 (COX-2); concentration not printed (second of three values printed for '1 μM and 100 μM')): about 18%
Substance: ethyl (α-guanido-methyl) ethanoate [Alpha-GEE]
Serum Amyloid A concentration, post-trial (serum amyloid A; mean ± SD after two weeks, pre-trial 673 ± 869, p < 0.05 compared to placebo (1483 ± 1653)): 255 ± 221 ng/mL
SAA levels compared to placebo at the end of the study (serum amyloid A; two-week trial, 36 mg/kg/day): significantly lower
